Experimental data taken from PMC8786932, “Bicyclic azetidines target acute and chronic stages of Toxoplasma gondii by inhibiting parasite phenylalanyl t-RNA synthetase” (Nature Communications, 2022).
Several values for one entry are separate records, joined by “and”; a condition that tells them apart may be missing. Identical values can stand only once.

Assays:
TgPheRS[L497I] = target: T1, TgPheRS[L497I] (Toxoplasma gondii, UniProt A0A125YPN6, L497I); experiment: Enzyme assay, TgPheRS L497I; assay type: biochemical; settings: for enzyme assay readout (raw): L497I
T1 sequence (A0A125YPN6 1-525 L497I): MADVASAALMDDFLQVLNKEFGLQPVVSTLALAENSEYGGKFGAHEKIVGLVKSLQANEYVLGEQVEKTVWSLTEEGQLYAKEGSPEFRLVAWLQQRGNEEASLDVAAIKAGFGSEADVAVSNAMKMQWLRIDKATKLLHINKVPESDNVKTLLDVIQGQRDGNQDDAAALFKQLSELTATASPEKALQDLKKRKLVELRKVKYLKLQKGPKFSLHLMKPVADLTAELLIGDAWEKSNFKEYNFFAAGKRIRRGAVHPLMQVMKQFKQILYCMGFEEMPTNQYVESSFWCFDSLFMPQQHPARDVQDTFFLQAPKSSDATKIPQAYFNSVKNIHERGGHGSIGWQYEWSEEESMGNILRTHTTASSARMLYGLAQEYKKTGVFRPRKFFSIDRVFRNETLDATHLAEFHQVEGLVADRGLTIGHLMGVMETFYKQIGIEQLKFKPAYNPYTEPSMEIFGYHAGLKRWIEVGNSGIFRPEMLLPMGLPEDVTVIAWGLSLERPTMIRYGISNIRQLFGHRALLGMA
T1 sequence (S8EZ50 1-675 partner): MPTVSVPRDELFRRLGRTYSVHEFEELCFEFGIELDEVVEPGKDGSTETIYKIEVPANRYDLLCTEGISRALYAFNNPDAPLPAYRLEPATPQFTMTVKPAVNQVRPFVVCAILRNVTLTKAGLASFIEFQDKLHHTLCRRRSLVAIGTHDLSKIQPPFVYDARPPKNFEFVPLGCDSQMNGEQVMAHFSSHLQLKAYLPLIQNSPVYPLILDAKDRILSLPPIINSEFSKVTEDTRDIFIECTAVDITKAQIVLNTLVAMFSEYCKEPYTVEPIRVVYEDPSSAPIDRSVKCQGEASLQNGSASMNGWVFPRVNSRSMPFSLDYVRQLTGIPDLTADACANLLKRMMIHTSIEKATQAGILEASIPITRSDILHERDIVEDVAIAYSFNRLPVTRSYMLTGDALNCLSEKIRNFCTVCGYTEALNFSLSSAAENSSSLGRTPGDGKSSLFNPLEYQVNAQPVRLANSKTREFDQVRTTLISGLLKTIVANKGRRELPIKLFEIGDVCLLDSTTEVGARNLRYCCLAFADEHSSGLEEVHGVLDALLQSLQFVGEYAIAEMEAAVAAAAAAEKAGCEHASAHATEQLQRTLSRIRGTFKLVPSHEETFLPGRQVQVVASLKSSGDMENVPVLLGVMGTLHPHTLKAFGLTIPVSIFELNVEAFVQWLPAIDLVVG

TgPheRS[M484I] = target: T2, TgPheRS[M484I] (Toxoplasma gondii, UniProt A0A125YPN6, M484I); experiment: Enzyme assay, TgPheRS M484I; assay type: biochemical; settings: for enzyme assay readout (raw): M484I
T2 sequence (A0A125YPN6 1-525 M484I): T1 sequence (A0A125YPN6 1-525 L497I)
T2 sequence (S8EZ50 1-675 partner): T1 sequence (S8EZ50 1-675 partner)

C. parvum = settings: Fig 2A Tg_Pf_Cp EC50s; previously reported values, reference not visible in the shown part; cited from earlier work
[1] = system: HFF (primary human foreskin fibroblast); experiment: in vitro; assay type: cell-based; settings: EC50 host cell/EC50 T. gondii
Description: For the toxicity screen, compounds were tested in 96-well plates using all the wells as no edge affect was observed. Compounds were diluted to 40 μM (2x concentration in 10% DMEM, 0.4% DMSO) before step-wise, 3-fold dilution in 10% DMEM to create 10-dose series (20 μM to 0.001 μM). Host cells were plated in black, μ-Clear 96-well plates (Greiner Bio-One). We compared several lineages including HepG2 (human hepatocellular carcinoma (ATCC-HB-8065)), THP-1 (human monocytic tumor line), SH-SY5Y (human neuroblastoma (ATCC CRL-2266)), A549 (human lung carcinoma (ATCC CRM-CCL-185)) and Caco-2 (human intestinal adenocarcinoma (ATCC HTB-37)) and HFF (primary human foreskin fibroblast) obtained from the laboratory of John Boothroyd at Stanford University. Cells were maintained in culture media according to the formulations recommended by ATCC. Cells were plated at a density (ranging from of 5 × 10^3 to 2 × 10^4 cells/well (100 μL vol)) resulting in sub-confluent monolayers to allow expansion during the 2 day growth assay. THP-1 cells were treated with 10 ng/ml phorbol 12-myristate 13-acetate (PMA) for 24 h to differentiate into macrophages before compound addition. For all other cells, compounds were added at 6 h post seeding to host cells containing plates (200 μL final volume, 0.2% DMSO) and incubated in culture medium at 37 °C supplemented with 5% CO2. At 44 h post compound addition (50 h total growth time), culture media was aspirated and replaced with Live Imaging solution (ThermoFisher) supplemented with 10 μg/mL Hoeschst 33342 (Sigma) for 20 min at 37 °C. […] Alternatively, plates fixed with 4% formaldehyde for 10 min and stained with 10 μg/mL Hoeschst 33342 (Sigma) for 20 min and imaged using a Cytation 3 multi-mode imager (DAPI, 10x objective, 4 images/well) and nuclei quantified using the Gen5 imager software (v3.08). Assays were repeated with two technical replicates within each of two independent biological replicates.
All statistical analyses were conducted using Prism 9 (GraphPad Software, Inc.). Dose–response inhibition curves for parasite and host cell toxicity screens (EC50 values) were generated using (Log(inhibitor) vs. normalized response—Variable slope) function. […] For multiple comparisons, two-way ANOVA analysis function using either Sidák’s multiple comparisons test or Dunnett’s multiple comparisons test was applied as indicated.

SMILES: COc1ccc(NC(=O)N2CCCCN3[C@H](CN(C)C)[C@H](c4ccc(C#Cc5ccccc5)cc4)[C@@H]3C2)cc1 [BRD7929]
- enzyme assay readout (raw) (TgPheRS[L497I]; 0.000005 μM): 0.3299 and 0.3217 and 0.3007
- enzyme assay readout (raw) (TgPheRS[L497I]; 0.000050 μM): 0.3157 and 0.3171 and 0.3115
- enzyme assay readout (raw) (TgPheRS[L497I]; 0.000500 μM): 0.3154 and 0.3074 and 0.3183
- enzyme assay readout (raw) (TgPheRS[L497I]; 0.005000 μM): 0.2831 and 0.3060 and 0.3128
- enzyme assay readout (raw) (TgPheRS[L497I]; 0.050000 μM): 0.3012 and 0.2839 and 0.2985
- enzyme assay readout (raw) (TgPheRS[L497I]; 0.500000 μM): 0.2641 and 0.2615 and 0.2741
- enzyme assay readout (raw) (TgPheRS[L497I]; 5.000000 μM): 0.2401 and 0.2141 and 0.2271
- enzyme assay readout (raw) (TgPheRS[L497I]; 50.000000 μM): 0.1719 and 0.1728 and 0.1711
- IC50 (TgPheRS[L497I]; Table S4, L497I, read-out: IC50 (enzyme inhibition)): 1320 nM
- enzyme assay readout (raw) (TgPheRS[M484I]; 0.000050 μM): 0.2597 and 0.2568 and 0.2561
- enzyme assay readout (raw) (TgPheRS[M484I]; 0.000500 μM): 0.2555 and 0.2526 and 0.2544
- enzyme assay readout (raw) (TgPheRS[M484I]; 0.005000 μM): 0.2503 and 0.2478 and 0.2487
- enzyme assay readout (raw) (TgPheRS[M484I]; 0.050000 μM): 0.2472 and 0.2441 and 0.2410
- enzyme assay readout (raw) (TgPheRS[M484I]; 0.500000 μM): 0.2388 and 0.2402 and 0.2378
- enzyme assay readout (raw) (TgPheRS[M484I]; 5.000000 μM): 0.2341 and 0.2345 and 0.2337
- enzyme assay readout (raw) (TgPheRS[M484I]; 50.000000 μM): 0.2266 and 0.2241
- IC50 (TgPheRS[M484I]; Table S4, M484I, read-out: IC50 (enzyme inhibition)): 135 nM

SMILES: COc1ccc(NC(=O)N2CCCCN3[C@H](CO)[C@H](c4ccc(C#Cc5ccccc5)cc4)[C@@H]3C2)cc1 [BRD3444]
- EC50 (C. parvum): 15 nM

SMILES: COc1ccc(NC(=O)N2CCCCN3[C@H](CN(C)S(C)(=O)=O)[C@H](c4ccc(C#Cc5ccccc5)cc4)[C@@H]3C2)cc1 [BRD8494]
- HFF fold selectivity [1]: 571.4 fold
